This is an account of results in ChEMBL document CHEMBL1136837, “Unified QSAR approach to antimicrobials. 4. Multi-target QSAR modeling and comparative multi-distance study of the giant components of antiviral drug-drug complex networks” (Bioorg Med Chem, 2009).

pIC50: −log10 of the molar value.

The test deals with Human immunodeficiency virus 1. Description: Antiviral activity against HIV1. Type of test: functional, organism-based.

Broadly, the pIC50 is the IC50 on a negative log10 scale, so that one unit is a factor of ten. Turning to `Cc1cccc(C)c1C(=O)N1CCC(C)(N2CCC(Cc3ccc(Br)cc3)CC2)CC1`, the pIC50 was 8.00.

In turn, `Cc1cccc(C)c1C(=O)N1CCC(C)(N2CCC(Cc3ccc(Cl)cc3)CC2)CC1` showed a pIC50 of 7.64. This pIC50 is 0.36 log units lower than that of the compound before.

The compound `COc1ccc(CC2CCN(C3(C)CCN(C(=O)c4c(C)cccc4C)CC3)CC2)cc1` showed a pIC50 of 7.59.

For the compound `CO/N=C(\c1ccc(Br)cc1)C1CCN(C2(C)CCN(C(=O)c3c(C)cccc3O)CC2)CC1`, the pIC50 is 8.40. This pIC50 is 0.81 log units higher than that of the compound before.

As to `CCO/N=C(\c1ccc(Br)cc1)C1CCN(C2(C)CCN(C(=O)c3c(C)cc(C)nc3O)CC2)CC1`, the pIC50 was 8.19.

The compound `CC(C)CN(C[C@@H](O)[C@H](Cc1ccccc1)NC(=O)O[C@H]1CCOC1)S(=O)(=O)c1ccc(N)cc1` showed a pIC50 of 8.70.

As for `C=C(C)[C@@H]1CC[C@]2(C(=O)NCCCCCCCC(=O)O)CC[C@]3(C)[C@H](CC[C@@H]4[C@@]5(C)CC[C@H](O)C(C)(C)[C@@H]5CC[C@]43C)[C@@H]12`, the pIC50 is 6.00.

Take `C=C(C)[C@@H]1CC[C@]2(C(=O)NCCCCCCCC(=O)N[C@@H](CC(C)C)[C@H](O)CC(=O)O)CC[C@]3(C)[C@H](CC[C@@H]4[C@@]5(C)CC[C@H](O)C(C)(C)[C@@H]5CC[C@]43C)[C@@H]12`: the pIC50 is 6.48.

For `C=C(C)[C@@H]1CC[C@]2(C(=O)NCCCCCCCCCCC(=O)N[C@@H](CC(C)C)C(=O)O)CC[C@]3(C)[C@H](CC[C@@H]4[C@@]5(C)CC[C@H](O)C(C)(C)[C@@H]5CC[C@]43C)[C@@H]12`, the pIC50 was 6.34. This pIC50 and that of the compound before are within 0.2 log units of each other.

Take `O=C(c1cc(Cc2ccccc2)ccn1)c1ccc2cccnc2c1O`: the pIC50 was 7.30.

Compound `O=C(O)C(=O)CC(=O)c1cccc(Cc2ccccc2)c1` had a pIC50 of 7.00.

In the case of `Cc1cc(OCCCS(N)(=O)=O)ccc1NC(=O)COc1ccc(Cl)cc1C(=O)c1cc(F)cc(C(F)(F)F)c1`, the pIC50 is 8.62.

On to `Nc1ncnc2c1ncn2C1C=CC(OCP(=O)(O)OP(=O)(O)OP(=O)(O)OP(=O)(O)COC2C=CC(n3cnc4c(N)ncnc43)C2)C1` (configuration not stated), for which the pIC50 is 5.70.

On to `Nc1ncnc2c1ncn2C1C=CC(OCP(=O)(O)OP(=O)(O)C(F)(F)P(=O)(O)OP(=O)(O)COC2C=CC(n3cnc4c(N)ncnc43)C2)C1` (configuration not stated), for which the pIC50 is 4.70.

In the case of `Cc1cc(S(N)(=O)=O)ccc1NC(=O)COc1ccc(Cl)cc1C(=O)c1cc(F)cc(C(F)(F)F)c1`, the pIC50 was 8.40. Against the preceding compound, the pIC50 is 3.70 log units higher.

For `C=C(C)[C@@H]1CC[C@]2(C(=O)NCCCCCCCCCCC(=O)O)CC[C@]3(C)[C@H](CC[C@@H]4[C@@]5(C)CC[C@H](O)C(C)(C)[C@@H]5CC[C@]43C)[C@@H]12`, the pIC50 is 6.15.

The compound `CCOC(=O)c1[nH]c2ccccc2c1S(=O)(=O)c1cc(Cl)ccc1N` showed a pIC50 of 3.70.

Take `CCO/N=C(\c1ccc(Br)cc1)C1CCN(C2(C)CCN(C(=O)c3c(C)ccc[n+]3[O-])CC2)CC1`: the pIC50 was 8.77.

`C=C(C)[C@@H]1CC[C@]2(C(=O)NCCCCCCCCCCC(=O)N[C@@H](CC(C)C)C(=O)OC)CC[C@]3(C)[C@H](CC[C@@H]4[C@@]5(C)CC[C@H](O)C(C)(C)[C@@H]5CC[C@]43C)[C@@H]12`: the pIC50 was 4.49.

On to `C=C(C)[C@@H]1CC[C@]2(C(=O)NCCC(=O)N[C@@H](CC(C)C)C(=O)O)CC[C@]3(C)[C@H](CC[C@@H]4[C@@]5(C)CC[C@H](O)C(C)(C)[C@@H]5CC[C@]43C)[C@@H]12`, for which the pIC50 is 4.41.

`Nc1ncnc2c1ncn2[C@@H]1O[C@H](CO)C=C1F` showed a pIC50 of 6.36.

As to `C=C(C)[C@@H]1CC[C@]2(C(=O)NCCCCCCCC(=O)N[C@@H](CC(C)C)C(=O)O)CC[C@]3(C)[C@H](CC[C@@H]4[C@@]5(C)CC[C@H](O)C(C)(C)[C@@H]5CC[C@]43C)[C@@H]12`, the pIC50 was 5.86.

Compound `CC(=O)NC1=CC(=O)c2ccc(-c3[nH]c(C(=O)O)cc4c5ccccc5nc3-4)nc2C1=O` showed a pIC50 of 4.88.

`COC(=O)c1[nH]c(-c2ccc3c(n2)C(=O)C(NC(C)=O)=CC3=O)c2nc3ccccc3c-2c1C`: the pIC50 is 4.82.

`O=C(c1cccc(Cc2ccccc2)c1)c1ncc2cccnc2c1O` gave a pIC50 of 7.40.

Turning to `Cc1ccc(S(=O)(=O)c2c(C(=O)NN)[nH]c3ccc(Cl)cc23)cc1`, the pIC50 is 7.30.

With `CCCCCCCCOC(=O)c1cc2c([nH]c3ccccc32)c(-c2ccc3c(n2)C(=O)C(NC(C)=O)=CC3=O)n1`, the pIC50 was 5.15.

The compound `CCO/N=C(\c1ccc(Br)cc1)C1CCN(C2(C)CCN(C(=O)c3cccnc3C)CC2)CC1` showed a pIC50 of 8.85.

In turn, `C=C(C)[C@@H]1CC[C@]2(C(=O)NCCCCCCCC(=O)N[C@@H](CC(C)C)[C@H](O)CC(=O)OCc3ccccc3)CC[C@]3(C)[C@H](CC[C@@H]4[C@@]5(C)CC[C@H](OC(C)=O)C(C)(C)[C@@H]5CC[C@]43C)[C@@H]12` showed a pIC50 of 4.55.

The compound `O=C(O)/C(O)=C/C(=O)c1c[nH]c2ccccc12` showed a pIC50 of 5.84.

`OC[C@@H]1C=C(F)[C@@H](n2cnc3c(O)ncnc32)O1` showed a pIC50 of 4.00.

On to `O=C(O)/C(O)=C/C(=O)c1ccccc1`, for which the pIC50 was 4.60.

For `O=C(O)/C(O)=C/C(=O)c1c[nH]c2ccc(Cl)cc12`, the negative logarithm of the IC50 (pIC50) was 6.28.

The compound `Nc1nc(Cl)c2ncn([C@@H]3O[C@H](CO)C=C3F)c2n1` had a pIC50 of 5.37.

Regarding `Nc1nc(O)c2ncn([C@@H]3O[C@H](CO)C=C3F)c2n1`, the pIC50 is 5.59.

Compound `COc1ccc(Cn2nnnc2/C(O)=C/C(=O)c2c[nH]c3ccccc23)cc1` gave a pIC50 of 4.00.

As to `Nc1ccn([C@H]2O[C@H](CO)C=C2F)c(=O)n1`, the pIC50 was 4.00.

Compound `O=C(/C=C(\O)c1nnn[nH]1)c1c[nH]c2ccccc12` gave a pIC50 of 5.72.

On to `COc1ccc2[nH]cc(C(=O)/C=C(\O)c3nnn[nH]3)c2c1`, for which the pIC50 was 4.40.

Take `O=C(O)/C(O)=C/C(=O)c1cccc(OCc2ccccc2)c1`: the pIC50 is 6.46.

Compound `O=C(O)/C(O)=C/C(=O)c1cccc(C(=O)/C=C(\O)C(=O)O)c1` had a pIC50 of 5.74.

`Cc1cn([C@@H]2O[C@H](CO)C=C2F)c(=O)nc1N`: the negative-log IC50 (pIC50) was 4.00.

`O=C(O)/C(O)=C/C(=O)c1ccnc2ccccc12`: the pIC50 is 4.00.

`Nc1nc(=O)n([C@H]2O[C@H](CO)C=C2F)cc1F` had a pIC50 of 4.00.

`O=C(O)/C(O)=C/C(=O)c1ccc(C(=O)/C=C(\O)C(=O)O)cc1` showed a pIC50 of 5.89.

`Cc1cn([C@H]2O[C@H](CO)C=C2F)c(=O)nc1N` showed a pIC50 of 4.00. Against the preceding compound, the pIC50 is 1.89 log units lower.

As for `O=C(O)/C(O)=C/C(=O)c1cc(OCc2ccccc2)cc(OCc2ccccc2)c1`, the pIC50 is 6.32.

Compound `O=C(/C=C(\O)c1nnn[nH]1)c1c[nH]c2ccc(F)cc12` had a pIC50 of 5.74.

In turn, `CCOC(=O)c1[nH]c2c(Cl)cccc2c1S(=O)(=O)c1ccccc1N` gave a pIC50 of 3.70. Against the preceding compound, the pIC50 is 2.04 log units lower.

As for `CC(C)C[C@H](NC(=O)[C@H](Cc1ccccc1)C[C@H](O)[C@@H](CC(=O)OC(C)(C)C)Cc1ccccc1)C(=O)N[C@@H](Cc1ccccc1)C(N)=O`, the pIC50 is 6.22.

`NC(=O)O[C@@H]1Cc2ccccc2C1C1=C(O)[C@](Cc2ccccc2)(C[C@H](O)[C@H](Cc2ccccc2)NC(=O)O[C@H]2CCOC2)N=C1` (some centres not stated) had a pIC50 of 5.70.

In the case of `Cc1c(O)cccc1C(=O)N[C@@H](CSc1ccccc1)[C@H](O)CN1C[C@H]2CCCC[C@H]2C[C@H]1C(=O)NC(C)(C)C`, the negative-log IC50 (pIC50) is 7.57.
